Biological target: T1, human recombinant FKBP12 (Homo sapiens, UniProt P62942)
T1 construct: purchased Sigma F-5398
Assay: Test 1: immunophilin FKBP12 rotamase (peptidylprolyl isomerase) inhibiting activity
Type: biochemical
Settings: 12 nM human recombinant FKBP12, substrate succinyl-Ala-Phe-Pro-Phe-paranitroanilide 48 μM, 4° C.; read-out: PKBP12 rotamase inhibiting activity IC50
Description: (Test 1) Test for Measuring Immunophilin FKBP12 Rotamase Activity
The rotamase (peptidylprolyl isomerase) inhibiting activity of each test compound was measured by a known method (Harding et al., Nature 341, 758-760, 1989; Holts et al., J. Am. Chem. Soc. 115, 9925-9938, 1993.) To be more specific, a plastic cuvette was charged with 35 mM HEPES (pH 7.8), 12 nM human recombinant FKBP12 (Sigma, F-5398), 0.4 mg/mL α-chymotrypsin, and a test compound dissolved in DMSO at varying concentrations (DMSO's final concentration was 0.1%.) Subsequently, 24 mM of the substrate peptide, succinyl-Ala-Phe-Pro-Phe-paranitroanilide, as dissolved in trifluoroethanol containing 500 mM of LiCl was added to give a final concentration of 48 μM, whereupon reaction started. The reaction was carried out at 4° C. and the change in absorbance at 390 nm accompanying the liberation of the paranitroaniline product was monitored. A calculated initial rate minus the corresponding value in the absence of the enzyme was used as an index of rotamase activity. The rotamase inhibiting activity of a test compound was expressed in relative values (%) with respect to the control value of rotamase activity in the absence of the compound, and the concentration of the compound at which it was capable of inhibiting rotamase activity by 50% was calculated as an IC50 value from its concentration response curve.

T1 sequence (P62942 whole entry): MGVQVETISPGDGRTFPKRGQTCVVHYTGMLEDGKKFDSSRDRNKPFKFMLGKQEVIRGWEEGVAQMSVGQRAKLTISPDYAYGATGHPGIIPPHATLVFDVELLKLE

Row | IC50 [nM] | SMILES
1 | 62 | COc1ccc(OCc2nnc([C@@H]3CCCN3C(=O)C(F)(F)C3(O)CC(C)(C)CC(C)(C)C3)o2)cc1OC [Compound 2, (S)-1-(2-(5-((3,4-Dimethoxyphenoxy)methyl)-1,3,4-oxadiazol-2-yl)pyrrolidin-1-yl)-2,2-difluoro-2-(1-hydroxy-3,3,5,5-tetramethylcyclohexyl)ethanone]
2 | 500 to 1000 | COc1ccc(OCc2noc([C@@H]3CCCN3C(=O)C(F)(F)C3(O)CC(C)(C)CC(C)(C)C3)n2)cc1OC [Compound 3, (S)-1-(2-(3-((3,4-Dimethoxyphenoxy)methyl)-1,2,4-oxadiazol-5-yl)pyrrolidin-1-yl)-2,2-difluoro-2-(1-hydroxy-3,3,5,5-tetramethylcyclohexyl)ethanone]
3 | 145 | COc1ccc(OCc2nnc([C@@H]3CCCN3C(=O)C(F)(F)C3(O)CC(C)(C)CC(C)(C)C3)s2)cc1OC [Compound 4, (S)-1-(2-(5-((3,4-Dimethoxyphenoxy)methyl)-1,3,4-thiadiazol-2-yl)pyrrolidin-1-yl)-2,2-difluoro-2-(1-hydroxy-3,3,5,5-tetramethylcyclohexyl)ethanone]
4 | 119 | COc1ccc(OCc2nc([C@@H]3CCCN3C(=O)C(F)(F)C3(O)CC(C)(C)CC(C)(C)C3)n[nH]2)cc1OC [Compound 5, (S)-1-(2-(5-((3,4-Dimethoxyphenoxy)methyl)-4H-1,2,4-triazol-3-yl)pyrrolidin-1-yl)-2,2-difluoro-2-(1-hydroxy-3,3,5,5-tetramethylcyclohexyl)ethanone]
5 | 500 to 1000 | COc1ccc(OCc2cnc([C@@H]3CCCN3C(=O)C(F)(F)C3(O)CC(C)(C)CC(C)(C)C3)o2)cc1OC [Compound 6, (S)-1-(2-(5-((3,4-Dimethoxyphenoxy)methyl)oxazol-2-yl)pyrrolidin-1-yl)-2,2-difluoro-2-(1-hydroxy-3,3,5,5-tetramethylcyclohexyl)ethanone]
6 | 500 to 1000 | COc1ccc(OCc2cnc([C@@H]3CCCN3C(=O)C(F)(F)C3(O)CC(C)(C)CC(C)(C)C3)s2)cc1OC [Compound 7, (S)-1-(2-(5-((3,4-Dimethoxyphenoxy)methyl)thiazol-2-yl)pyrrolidin-1-yl)-2,2-difluoro-2-(1-hydroxy-3,3,5,5-tetramethylcyclohexyl)ethanone]
7 | 189 | COc1ccc(OCc2nc([C@@H]3CCCN3C(=O)C(F)(F)C3(O)CC(C)(C)CC(C)(C)C3)nn2C)cc1OC [Compound 8, (S)-1-(2-(5-((3,4-Dimethoxyphenoxy)methyl)-1-methyl-1H-1,2,4-triazol-3-yl)pyrrolidin-1-yl)-2,2-difluoro-2-(1-hydroxy-3,3,5,5-tetramethylcyclohexyl)ethanone]
8 | 500 to 1000 | COc1ccc(OCc2cc([C@@H]3CCCN3C(=O)C(F)(F)C3(O)CC(C)(C)CC(C)(C)C3)nn2C)cc1OC [Compound 9, (S)-1-(2-(5-((3,4-Dimethoxyphenoxy)methyl)-1-methyl-1H-pyrazol-3-yl)pyrrolidin-1-yl)-2,2-difluoro-2-(1-hydroxy-3,3,5,5-tetramethylcyclohexyl)ethanone]
9 | 500 to 1000 | COc1ccc(OCc2cc([C@@H]3CCCN3C(=O)C(F)(F)C3(O)CC(C)(C)CC(C)(C)C3)on2)cc1OC [Compound 10, (S)-1-(2-(3-((3,4-Dimethoxyphenoxy)methyl)isoxazol-5-yl)pyrrolidin-1-yl)-2,2-difluoro-2-(1-hydroxy-3,3,5,5-tetramethylcyclohexyl)ethanone]
10 | 235 | COc1ccc(OCc2cc([C@@H]3CCCN3C(=O)C(F)(F)C3(O)CC(C)(C)CC(C)(C)C3)n[nH]2)cc1OC [Compound 11, (S)-1-(2-(5-((3,4-Dimethoxyphenoxy)methyl)-1H-pyrazol-3-yl)pyrrolidin-1-yl)-2,2-difluoro-2-(1-hydroxy-3,3,5,5-tetramethylcyclohexyl)ethanone]
11 | 270 | COc1ccc(CCc2nnc([C@@H]3CCCN3C(=O)C(F)(F)C3(O)CC(C)(C)CC(C)(C)C3)o2)cc1OC [Compound 12]
12 | 434 | COc1ccc(-c2nnc([C@@H]3CCCN3C(=O)C(F)(F)C3(O)CC(C)(C)CC(C)(C)C3)o2)cc1OC [Compound 13]
13 | 500 to 1000 | COc1ccc(CCCc2nnc([C@@H]3CCCN3C(=O)C(F)(F)C3(O)CC(C)(C)CC(C)(C)C3)o2)cc1OC [Compound 14]
14 | 142 | COc1ccc(Cc2nnc([C@@H]3CCCN3C(=O)C(F)(F)C3(O)CC(C)(C)CC(C)(C)C3)o2)cc1OC [Compound 16]
15 | 356 | CC1(C)CC(C)(C)CC(O)(C(F)(F)C(=O)N2CCC[C@H]2c2nnc(COc3cccnc3)o2)C1 [Compound 17]
16 | 500 to 1000 | CC1(C)CC(C)(C)CC(O)(C(F)(F)C(=O)N2CCC[C@H]2c2cc(CO)on2)C1 [Compound 18, (S)-2,2-Difluoro-2-(1-hydroxy-3,3,5,5-tetramethylcyclohexyl)-1-(2-(5-(hydroxymethyl)isoxazol-3-yl)pyrrolidin-1-yl)ethanone]
17 | 229 | CC1(C)CC(C)(C)CC(O)(C(F)(F)C(=O)N2CCC[C@H]2c2nnc(COc3ccc(CO)cc3)o2)C1 [Compound 19]
18 | 276 | COc1cc(OCc2nnc([C@@H]3CCCN3C(=O)C(F)(F)C3(O)CC(C)(C)CC(C)(C)C3)o2)cc(OC)c1OC [Compound 20]
19 | 64 | COc1cc(OCc2cc([C@@H]3CCCN3C(=O)C(F)(F)C3(O)CC(C)(C)CC(C)(C)C3)no2)cc(OC)c1OC [Compound 21, (S)-2,2-Difluoro-2-(1-hydroxy-3,3,5,5-tetramethylcyclohexyl)-1-(2-(5-((3,4,5-trimethoxyphenoxy)methyl)isoxazol-3-yl)pyrrolidin-1-yl)ethanone]

Row | IC50 [nM] | SMILES
20 | 1000 to 2000 | CC1(C)CC(C)(C)CC(O)(C(F)(F)C(=O)N2CCC[C@H]2c2nnc(CO)o2)C1 [Compound 22, (S)-2,2-Difluoro-2-(1-hydroxy-3,3,5,5-tetramethylcyclohexyl)-1-(2-(5-(hydroxymethy)-1,3,4-oxadiazol-2-yl)pyrrolidin-1-yl)ethanone]
21 | 1000 to 2000 | CC1(C)CC(C)(C)CC(O)(C(F)(F)C(=O)N2CCC[C@H]2c2nnc(COS(C)(=O)=O)o2)C1 [Compound 23, (S)-(5-(1-(2,2-Difluoro-2-(1-hydroxy-3,3,5,5-tetramethylcyclohexyl)acetyl)pyrrolidin-2-yl)-1,3,4-oxadiazol-2-yl)methyl methanesulfonate]
22 | 218 | COc1ccc(OCc2nnc([C@@H]3CCCN3C(=O)C(F)(F)C3(O)CC(C)(C)CC(C)(C)C3)o2)cc1 [Compound 24]
23 | 401 | COc1ccccc1OCc1nnc([C@@H]2CCCN2C(=O)C(F)(F)C2(O)CC(C)(C)CC(C)(C)C2)o1 [Compound 25]
24 | 500 to 1000 | COc1cccc(OCc2nnc([C@@H]3CCCN3C(=O)C(F)(F)C3(O)CC(C)(C)CC(C)(C)C3)o2)c1 [Compound 26]
25 | 500 to 1000 | Cc1nnc([C@@H]2CCCN2C(=O)C(F)(F)C2(O)CC(C)(C)CC(C)(C)C2)o1 [Compound 27]
26 | 351 | COc1ccc(Oc2nnc([C@@H]3CCCN3C(=O)C(F)(F)C3(O)CC(C)(C)CC(C)(C)C3)o2)cc1OC [Compound 28]
27 | 62 | CC1(C)CC(C)(C)CC(O)(C(F)(F)C(=O)N2CCC[C@H]2c2nnc(COc3ccccc3)o2)C1 [Compound 29, (S)-2,2-Difluoro-2-(1-hydroxy-3,3,5,5-tetramethylcyclohexyl)-1-(2-(5-(phenoxymethyl)-1,3,4-oxadiazol-2-yl)pyrrolidin-1-yl)ethanone]
28 | 220 | COc1ccc(OCc2nnc([C@@H]3CCCN3C(=O)C(F)(F)C3(O)CC(C)(C)CC(C)(C)C3)o2)c(OC)c1 [Compound 30]
29 | 389 | COc1ccc(OCc2nnc([C@@H]3CCCN3C(=O)C(F)(F)C3(O)CC(C)(C)CC(C)(C)C3)o2)cn1 [Compound 31]
30 | 165 | CC1(C)CC(C)(C)CC(O)(C(F)(F)C(=O)N2CCC[C@H]2c2nnc(COc3ccc4c(c3)OCO4)o2)C1 [Compound 32]
31 | 259 | CC1(C)CC(C)(C)CC(O)(C(F)(F)C(=O)N2CCC[C@H]2c2nnc(COc3ccc4cc[nH]c4c3)o2)C1 [Compound 33]
32 | 500 to 1000 | CC1(C)CC(C)(C)CC(O)(C(F)(F)C(=O)N2CCC[C@H]2c2nnc(Cc3cccnc3)o2)C1 [Compound 34]
33 | 45 | CC1(C)CC(C)(C)CC(O)(C(F)(F)C(=O)N2CCC[C@H]2c2cc(CCc3cccnc3)on2)C1 [Compound 35]
34 | 1000 to 2000 | CC1(C)CC(C)(C)CC(O)(C(F)(F)C(=O)N2CCC[C@H]2c2nnc(COc3cncnc3)o2)C1 [Compound 36]
35 | 1000 to 2000 | CC1(C)CC(C)(C)CC(O)(C(F)(F)C(=O)N2CCC[C@H]2c2nnc(CN)o2)C1 [Compound 37]
36 | 500 to 1000 | CC1(C)CC(C)(C)CC(O)(C(F)(F)C(=O)N2CCC[C@H]2c2nnc(CNC(=O)c3ccccc3)o2)C1 [Compound 38, (S)—N-((5-(1-(2,2-Difluoro-2-(1-hydroxy-3,3,5,5-tetramethylcyclohexyl)acetyl)pyrrolidin-2-yl)-1,3,4-oxadiazol-2-yl)methyl)benzamide]
37 | 500 to 1000 | CN(C)Cc1nnc([C@@H]2CCCN2C(=O)C(F)(F)C2(O)CC(C)(C)CC(C)(C)C2)o1 [Compound 39, (S)-1-(2-(5-((Dimethylamino)methyl)-1,3,4-oxadiazol-2-yl)pyrrolidin-1-yl)-2,2-difluoro-2-(1-hydroxy-3,3,5,5-tetramethylcyclohexyl)ethanone]

Source: patent US20130345419A1, “AZOLE DERIVATIVE” (TAISHO PHARMACEUTICAL CO., LTD., priority 2011, published 2013)
